Measured values as given in ChEMBL document CHEMBL1201862, “PubChem BioAssay data set” (2004).
Active and inactive are the calls of the source.

How the values were obtained:
[1] = target: T1, Carboxy-terminal domain RNA polymerase II polypeptide A small phosphatase 1 (Homo sapiens, UniProt Q9GZU7); test: inhibitors of CTDSP1, concentration-response testing, biochemical assay, absorbance-based, actives from ultra-high-throughput screening (AID 540297); assay type: functional
T1 sequence (Q9GZU7 whole entry): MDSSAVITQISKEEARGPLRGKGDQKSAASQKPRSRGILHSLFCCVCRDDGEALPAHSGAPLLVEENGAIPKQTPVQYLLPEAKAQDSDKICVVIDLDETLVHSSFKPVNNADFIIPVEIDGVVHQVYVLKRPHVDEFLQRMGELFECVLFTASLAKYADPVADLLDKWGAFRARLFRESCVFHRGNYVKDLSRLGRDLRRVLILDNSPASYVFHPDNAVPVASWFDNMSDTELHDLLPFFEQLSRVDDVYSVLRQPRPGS

Nonstructural protein 1 = Nonstructural protein 1 (Influenza A virus, UniProt Q194T2); assay type: functional, Influenza A virus (A/California/07/2009(H1N1))
[2] = target: Glucose-6-phosphate 1-dehydrogenase (Homo sapiens, UniProt P11413); test: human G6PD enzyme inhibitors, dose response, selectivity assay for P. falciparum G6PD inhibitor project, biochemical, fluorescence (AID 504792); assay type: functional
[3] = target: T2, Apoptotic protease-activating factor 1 (Homo sapiens, UniProt O14727); assay type: functional
T2 sequence (O14727 whole entry): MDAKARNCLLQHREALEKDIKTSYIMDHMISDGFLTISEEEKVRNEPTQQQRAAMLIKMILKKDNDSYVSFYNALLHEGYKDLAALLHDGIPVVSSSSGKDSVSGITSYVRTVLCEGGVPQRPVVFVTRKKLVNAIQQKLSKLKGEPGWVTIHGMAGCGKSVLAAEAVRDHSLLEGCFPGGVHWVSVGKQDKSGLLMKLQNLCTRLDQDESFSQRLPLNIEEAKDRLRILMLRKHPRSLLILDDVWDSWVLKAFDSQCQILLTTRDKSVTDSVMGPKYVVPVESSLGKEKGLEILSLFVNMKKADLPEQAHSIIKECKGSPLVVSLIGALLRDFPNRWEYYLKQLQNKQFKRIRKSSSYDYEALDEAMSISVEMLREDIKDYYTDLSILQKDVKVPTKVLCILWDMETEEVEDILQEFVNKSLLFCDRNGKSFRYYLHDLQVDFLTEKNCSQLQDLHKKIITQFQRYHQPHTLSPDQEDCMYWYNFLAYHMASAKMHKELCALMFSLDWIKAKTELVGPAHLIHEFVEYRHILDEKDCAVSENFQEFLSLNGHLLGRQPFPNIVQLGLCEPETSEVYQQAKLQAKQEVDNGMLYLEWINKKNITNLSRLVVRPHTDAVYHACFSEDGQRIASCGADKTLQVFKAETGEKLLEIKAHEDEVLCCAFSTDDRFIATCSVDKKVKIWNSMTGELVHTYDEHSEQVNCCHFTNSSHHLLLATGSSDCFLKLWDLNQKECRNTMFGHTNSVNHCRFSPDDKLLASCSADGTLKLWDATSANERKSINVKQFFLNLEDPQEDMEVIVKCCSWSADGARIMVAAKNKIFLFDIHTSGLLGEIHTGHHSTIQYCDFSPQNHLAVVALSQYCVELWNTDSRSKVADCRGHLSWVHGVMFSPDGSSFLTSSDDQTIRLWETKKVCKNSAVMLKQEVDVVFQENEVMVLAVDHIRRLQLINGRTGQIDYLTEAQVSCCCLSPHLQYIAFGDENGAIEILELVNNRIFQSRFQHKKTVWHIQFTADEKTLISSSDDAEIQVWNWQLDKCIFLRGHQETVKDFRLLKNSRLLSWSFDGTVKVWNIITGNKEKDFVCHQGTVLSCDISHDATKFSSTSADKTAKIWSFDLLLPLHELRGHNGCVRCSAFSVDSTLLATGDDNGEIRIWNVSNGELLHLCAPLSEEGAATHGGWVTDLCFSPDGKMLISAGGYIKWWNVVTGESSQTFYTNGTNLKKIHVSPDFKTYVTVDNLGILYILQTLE

[4] = NIH-3T3 fibroblast cytotoxicity, dose response, cytotoxicity control, cell-based, fluorescence, Alamar Blue, secondary assay (AID 2327); assay type: functional;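 also: NIH-3T3 mouse fibroblasts cultured with fluconazole at 8 µg/mL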
[5] = inhibitors of firefly luciferase expression or activity, dose response, H4 neuroglioma cells, luminescence (AID 1990); assay type: functional, cell-based
cells [6] = assay type: functional, cell-based
[7] = Luminescence Cell-Based Dose Response HTS to Identify Inhibitors of 5'UTR Stem-Loop Driven Prion Protein mRNA Translation in H4 Neuroglioblastoma Cells. [Related pubchem assays: 1827 (Project Summary), 1813 (Primary HTS)]; assay type: functional
[8] = inhibitors of SNCA 5'UTR-driven reporter translation, confirmation, H4 neuroglioma cells, luminescence (AID 1988); assay type: functional, cell-based
[9] = C. albicans growth with fluconazole, confirmation, fluorescence, retest (AID 2467); assay type: functional, cell-based
[10] = inhibitors of intracellular T. cruzi replication, confirmation, NIH3T3 host cells, beta-gal luminescence (AID 2044); assay type: functional, cell-based;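 also: intracellular parasites grown in NIH/3T3 mouse fibroblasts as host cells; luminescent beta-galactosidase reporter signal from transgenic T. cruzi replicating inside host cells; inhibitors lower the luminescence signal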
cells [11] = assay type: functional, cell-based; remark: listed apart in the source
[12] = growth suppression of PTEN-null colon cells, dose response, cell-based, HCT116 PTEN knockout (AID 1047); assay type: functional;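 also: HCT116 colon tumor cells with PTEN knocked out; cells exposed to compound for 60 hours before readout; potency for loss of cell viability measured by luminescence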
[13] = cytotoxicity toward NIH3T3 fibroblasts, dose response, counter-screen, cell-based, ATP luminescence, mouse fibroblasts (AID 2010); assay type: functional; details: NIH3T3;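 also: cells exposed to compound for about 90 hours before reading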
[14] = growth suppression of beta-catenin-knockout colon cells, dose response, cell-based, HCT116, human colon tumor (AID 1045); assay type: functional;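 also: HCT116 colon tumor cells with beta catenin knocked out; cells exposed to compound for 60 hours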
[15] = target: Heat shock protein HSP 90-alpha (Homo sapiens, UniProt P07900); assay type: functional, organism-based
[16] = target: T3, Corticotropin-releasing factor receptor 2/Corticotropin-releasing factor-binding protein (Homo sapiens, UniProt P24387+Q13324); test: Dose Response confirmation of uHTS hits for small molecule antagonists of the CRF-binding protein and CRF-R2 receptor complex.; assay type: functional; details: read-out: IC50_Mean
T3 sequence (Q13324 whole entry): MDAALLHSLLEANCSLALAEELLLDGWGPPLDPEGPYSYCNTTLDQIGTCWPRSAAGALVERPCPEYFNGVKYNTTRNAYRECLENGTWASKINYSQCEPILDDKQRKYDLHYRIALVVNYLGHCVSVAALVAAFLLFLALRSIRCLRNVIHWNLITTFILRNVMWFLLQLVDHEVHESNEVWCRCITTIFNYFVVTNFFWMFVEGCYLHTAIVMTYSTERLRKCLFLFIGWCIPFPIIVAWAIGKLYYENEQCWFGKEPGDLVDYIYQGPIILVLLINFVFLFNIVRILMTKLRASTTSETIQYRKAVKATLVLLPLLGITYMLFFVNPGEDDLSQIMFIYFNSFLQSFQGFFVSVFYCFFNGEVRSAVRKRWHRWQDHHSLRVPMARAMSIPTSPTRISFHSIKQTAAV
T3 sequence (P24387 whole entry): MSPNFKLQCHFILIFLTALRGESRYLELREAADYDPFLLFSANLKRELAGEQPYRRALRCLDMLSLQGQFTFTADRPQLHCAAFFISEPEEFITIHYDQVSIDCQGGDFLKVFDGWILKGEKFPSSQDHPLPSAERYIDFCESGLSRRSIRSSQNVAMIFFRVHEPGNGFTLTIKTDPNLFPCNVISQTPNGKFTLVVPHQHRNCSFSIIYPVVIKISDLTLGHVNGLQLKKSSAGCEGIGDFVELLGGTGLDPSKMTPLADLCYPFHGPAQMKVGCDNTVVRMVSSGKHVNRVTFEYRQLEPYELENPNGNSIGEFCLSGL

[17] = target: T3, Corticotropin-releasing factor receptor 2/Corticotropin-releasing factor-binding protein; test: activators of CRF receptor 2 with binding protein – uHTS hits, confirmation (AID 602473); assay type: functional; details: read-out: EC50_Mean
Fatty acid synthase [18] = target: T4, Fatty acid synthase (Homo sapiens, UniProt P49327); test: FAS thioesterase domain inhibitors, dose response, biochemical, endpoint fluorescence intensity, uHTS hits (AID 624327); assay type: functional;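 also: fluorescence from hydrolysis of an O-methyl fluorescein acyl ester substrate by the enzyme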
Fatty acid synthase [19] = target: T4, Fatty acid synthase; test: FAS thioesterase domain inhibitors, dose response, biochemical, kinetic fluorescence intensity (AID 624326); assay type: functional;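 also: rate of fluorescence rise from hydrolysis of a fluorogenic O-methyl fluorescein ester substrate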
[20] = inhibitors of HIV Env-driven cell fusion, dose response, cherry-pick (AID 652057); assay type: functional, cell-based
[21] = off-target signal loss in HeLa-CEM21 co-culture – HeLa F-luc CTL cells, cherry-picked, counter-screen for HIV-1 Env fusion inhibitor project, dose response (AID 652040); assay type: functional, cell-based;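 also: potency for signal decrease marking cytotoxic or nonspecific inhibition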
[22] = inhibitors of clade B AD8 Env fusion, dose response, cell-based, cherry-pick (AID 652062); assay type: functional;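 also: luciferase signal from cell-cell fusion driven by HIV-1 clade B AD8 Env; potency is for inhibitors of fusion seen as a drop in luminescence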

Glucose-6-phosphate 1-dehydrogenase, sequence (P11413 whole entry): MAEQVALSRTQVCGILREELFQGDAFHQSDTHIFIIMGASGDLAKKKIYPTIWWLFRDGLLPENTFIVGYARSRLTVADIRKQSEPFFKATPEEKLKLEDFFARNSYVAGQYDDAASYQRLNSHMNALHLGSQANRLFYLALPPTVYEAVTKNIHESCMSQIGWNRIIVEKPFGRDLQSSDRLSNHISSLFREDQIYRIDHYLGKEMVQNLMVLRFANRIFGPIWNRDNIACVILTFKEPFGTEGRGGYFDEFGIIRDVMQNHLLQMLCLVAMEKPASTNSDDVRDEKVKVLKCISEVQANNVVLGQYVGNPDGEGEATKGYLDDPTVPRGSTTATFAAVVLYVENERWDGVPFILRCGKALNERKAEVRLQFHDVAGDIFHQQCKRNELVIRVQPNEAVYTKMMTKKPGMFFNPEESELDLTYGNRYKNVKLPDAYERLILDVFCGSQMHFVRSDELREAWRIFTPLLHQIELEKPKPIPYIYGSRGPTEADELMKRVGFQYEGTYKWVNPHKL
T4 sequence (P49327 whole entry, the tested form may be a part): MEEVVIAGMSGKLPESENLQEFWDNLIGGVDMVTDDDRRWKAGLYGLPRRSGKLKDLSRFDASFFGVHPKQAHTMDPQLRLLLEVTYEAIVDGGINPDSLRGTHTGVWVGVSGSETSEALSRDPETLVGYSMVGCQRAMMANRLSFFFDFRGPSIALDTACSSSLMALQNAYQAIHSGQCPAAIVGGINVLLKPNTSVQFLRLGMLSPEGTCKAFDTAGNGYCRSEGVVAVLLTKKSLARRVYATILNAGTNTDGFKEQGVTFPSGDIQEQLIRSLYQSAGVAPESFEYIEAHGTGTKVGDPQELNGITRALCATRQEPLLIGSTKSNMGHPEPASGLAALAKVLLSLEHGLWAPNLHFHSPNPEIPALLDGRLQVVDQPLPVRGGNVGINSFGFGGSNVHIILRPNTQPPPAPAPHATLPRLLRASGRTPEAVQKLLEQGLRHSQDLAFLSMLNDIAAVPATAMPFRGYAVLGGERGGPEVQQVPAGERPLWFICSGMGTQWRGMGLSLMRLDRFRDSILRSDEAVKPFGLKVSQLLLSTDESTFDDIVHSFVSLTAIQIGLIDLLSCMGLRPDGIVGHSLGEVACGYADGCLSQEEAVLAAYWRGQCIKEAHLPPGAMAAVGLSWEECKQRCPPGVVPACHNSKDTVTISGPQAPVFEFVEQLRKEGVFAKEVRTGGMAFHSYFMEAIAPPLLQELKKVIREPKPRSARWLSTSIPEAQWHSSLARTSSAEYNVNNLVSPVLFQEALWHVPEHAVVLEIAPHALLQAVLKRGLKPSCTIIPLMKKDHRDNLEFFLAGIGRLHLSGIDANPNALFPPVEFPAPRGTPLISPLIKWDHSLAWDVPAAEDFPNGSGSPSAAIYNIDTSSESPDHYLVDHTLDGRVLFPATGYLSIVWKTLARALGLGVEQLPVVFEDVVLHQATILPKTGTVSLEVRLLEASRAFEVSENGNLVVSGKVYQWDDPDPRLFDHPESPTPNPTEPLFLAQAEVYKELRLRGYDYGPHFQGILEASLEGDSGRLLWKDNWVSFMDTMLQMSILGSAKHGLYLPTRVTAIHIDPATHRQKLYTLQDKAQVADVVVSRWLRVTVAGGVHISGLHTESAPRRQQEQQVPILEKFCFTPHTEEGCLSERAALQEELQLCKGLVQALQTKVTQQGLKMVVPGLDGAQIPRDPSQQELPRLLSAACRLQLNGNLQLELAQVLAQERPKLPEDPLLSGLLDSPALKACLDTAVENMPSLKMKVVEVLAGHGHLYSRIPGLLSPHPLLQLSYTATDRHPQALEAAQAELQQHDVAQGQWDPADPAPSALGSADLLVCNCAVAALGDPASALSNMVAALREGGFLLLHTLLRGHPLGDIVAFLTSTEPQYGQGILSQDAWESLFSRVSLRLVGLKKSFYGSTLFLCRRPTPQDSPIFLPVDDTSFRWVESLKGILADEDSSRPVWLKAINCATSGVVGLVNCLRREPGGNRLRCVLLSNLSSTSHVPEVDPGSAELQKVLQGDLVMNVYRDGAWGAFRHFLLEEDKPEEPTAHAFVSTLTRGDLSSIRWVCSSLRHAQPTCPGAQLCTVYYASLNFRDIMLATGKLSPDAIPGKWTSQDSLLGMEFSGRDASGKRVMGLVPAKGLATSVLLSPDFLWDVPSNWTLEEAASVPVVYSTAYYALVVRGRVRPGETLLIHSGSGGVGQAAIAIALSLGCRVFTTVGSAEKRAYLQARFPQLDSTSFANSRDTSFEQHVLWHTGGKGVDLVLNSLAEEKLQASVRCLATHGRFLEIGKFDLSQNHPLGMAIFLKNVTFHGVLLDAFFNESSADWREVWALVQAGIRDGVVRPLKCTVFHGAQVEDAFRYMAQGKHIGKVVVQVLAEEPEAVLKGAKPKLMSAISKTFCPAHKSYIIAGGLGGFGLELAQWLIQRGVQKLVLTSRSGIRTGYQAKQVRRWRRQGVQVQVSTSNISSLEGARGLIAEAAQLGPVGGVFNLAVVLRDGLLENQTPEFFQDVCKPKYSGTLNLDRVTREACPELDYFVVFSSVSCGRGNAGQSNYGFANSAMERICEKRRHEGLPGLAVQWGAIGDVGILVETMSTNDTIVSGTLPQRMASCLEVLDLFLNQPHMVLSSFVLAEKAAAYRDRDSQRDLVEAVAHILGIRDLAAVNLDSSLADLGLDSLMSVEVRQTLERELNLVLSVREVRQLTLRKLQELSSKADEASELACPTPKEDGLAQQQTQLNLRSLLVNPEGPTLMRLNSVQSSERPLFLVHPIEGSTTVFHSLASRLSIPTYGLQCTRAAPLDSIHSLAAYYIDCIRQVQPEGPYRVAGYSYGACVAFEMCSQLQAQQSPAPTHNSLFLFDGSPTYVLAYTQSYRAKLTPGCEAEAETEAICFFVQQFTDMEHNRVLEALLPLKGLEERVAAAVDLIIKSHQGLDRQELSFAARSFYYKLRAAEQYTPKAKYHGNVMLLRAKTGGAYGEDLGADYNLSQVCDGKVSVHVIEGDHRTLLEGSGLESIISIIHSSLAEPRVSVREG
Nonstructural protein 1, sequence (Q194T2 whole entry): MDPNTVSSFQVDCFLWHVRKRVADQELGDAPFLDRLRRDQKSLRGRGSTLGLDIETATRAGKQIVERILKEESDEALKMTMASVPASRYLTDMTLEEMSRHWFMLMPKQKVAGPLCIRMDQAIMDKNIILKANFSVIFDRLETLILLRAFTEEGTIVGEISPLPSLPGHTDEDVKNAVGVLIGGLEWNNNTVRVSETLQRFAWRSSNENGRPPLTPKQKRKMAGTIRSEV

Structure (SMILES): O=C(CSc1ccccn1)Nc1ccc2c(c1)C(=O)c1ccccc1C2=O
- IC50 [1]: 3.08 µM (active)

Structure (SMILES): CC1=[N+](C)c2c(ccc3cccnc23)C1(C)C
- IC50 (Nonstructural protein 1): > 100 µM (active)

Structure (SMILES): CCOc1cc(NCc2ccccc2)c2ncn(C(C)C)c2c1
- IC50 [2]: > 80 µM (inactive)
- IC50 [3]: 34.7 µM (active)

Structure (SMILES): CN1CCN(Cc2cc(COCc3ccccc3)c3cccnc3c2O)CC1
- EC50 [4]: > 150 µM (inconclusive)
- EC50 [5]: 7.01 µM (active)
- EC50 (cells [6]): 7.14 µM (active)
- EC50 [7]: 8.1 µM (active)
- EC50 [8]: 5.83 µM (active)
- EC50 [9]: 800 nM (active)
- EC50 [10]: 1.37 µM (active)
- EC50 (cells [11]): > 350 µM (not active)
- EC50 [12]: 3.11 µM (active)
- EC50 [13]: 7.62 µM (active)
- EC50 [14]: 3.23 µM (active)
- IC50 (Nonstructural protein 1): 3.98 µM (active)

Structure (SMILES): Cc1cccc(C(=O)Nc2sc3c(c2C(=O)O)CCCC3)c1
- IC50 [2]: > 80 µM (inactive)

Structure (SMILES): CN1C(=O)C(N=Nc2ccc([N+](=O)[O-])cc2)SC1=S (stereo unspecified)
- IC50 [2]: > 80 µM (inactive)
- AC50 [15]: 14.5 µM (active)
- IC50 [16]: < 368 nM (active)
- EC50 [17]: 1.69 µM (active)

Structure (SMILES): CSc1ccc(CN2C(=O)C(F)(F)Oc3c(C(C)=O)cccc32)cc1
- IC50 (Fatty acid synthase [18]): 9.19 µM (active)
- IC50 (Fatty acid synthase [19]): 9.77 µM (active)

Structure (SMILES): Oc1ccc(O)c2c1C1(Cl)C(Cl)=C(Cl)C2(Cl)C1(Cl)Cl
- AC50 [15]: 8.21 µM (active)
- IC50 (Fatty acid synthase [18]): 15.7 µM (active)
- IC50 (Fatty acid synthase [19]): 14.1 µM (active)

Structure (SMILES): CCN(CC)S(=O)(=O)c1cccc(S(=O)(=O)c2cccc(S(=O)(=O)N(CC)CC)c2)c1
- AC50 [20]: 20.8 µM (active)
- AC50 [21]: 43.7 µM (active)
- AC50 [22]: 18.3 µM (active)

Structure (SMILES): Cc1cccc(C)c1NC(=O)C(Cl)C(=O)c1ccccc1 (stereo unspecified)
- AC50 [15]: 0.855 µM (active)

Structure (SMILES): O=C(NNC(=O)c1ccc2ccccc2c1)c1ccc(Cl)c(Cl)c1
- IC50 [1]: > 80 µM (inactive)
